Reference: PMC2584942, “Phase I dose escalation study of telatinib (BAY 57-9352) in patients with advanced solid tumours” (British Journal of Cancer, 2008)
Where two headings read alike, the source gives them in different places.

What was measured:
[1] = Plasma pharmacokinetics of telatinib and metabolite BAY 60-8246 (LC-MS-MS, non-compartmental); format: in vivo, human; conditions: for half-life / Tmax / Cmax / AUC(0-t) / AUC: human; for AUC(0-t): read-out: AUC0–12; for AUC: read-out: AUC0–tn
Experimental: Patients with at least one valid pharmacokinetic profile were valid for the pharmacokinetic analysis. Plasma samples were collected at predose and 0.5, 1, 2, 3, 4, 6, 8, and 12 h postdose on day 1 and day 14 of cycle 1 and were analysed for BAY 57-9352 and its demethylated metabolite M-2, BAY 60-8246, using a validated LC-MS-MS analytical method.
Plasma pharmacokinetic parameters, area under the curve from time 0–12 h after dosing (AUC0−12), area under the curve from time 0 to last data point (AUC0−tn), maximum plasma concentration (Cmax), and time to maximum plasma concentration (tmax) of telatinib and its metabolite (BAY 60-8246) as well as half-life of telatinib were calculated by non-compartmental methods using WinNonlin version 4.1.a (Pharsight Corporation). The linear-logarithmic trapezoidal rule was used for calculating AUC. Half-life was calculated by linear least squares regression after logarithmic transformation of the terminal concentrations. Pharmacokinetic parameters were analysed using descriptive statistics.

[2] = system: VEGFR-2 autophosphorylation; set-up: method as in printed; conditions: whole-cell assay in vitro; background statement, ref not given; cited from earlier work
[3] = telatinib in plasma, day 14 cycle 1, 75 mg BID oral, 25 mg mesylate tablet, n=4, geometric mean (%CV)
[4] = telatinib in plasma, day 14 cycle 1, 150 mg BID oral, 25 mg mesylate tablet, n=6, geometric mean (%CV)
[5] = telatinib in plasma, day 14 cycle 1, 300 mg BID oral, 25 mg mesylate tablet, n=6, geometric mean (%CV)
[6] = telatinib in plasma, day 14 cycle 1, 600 mg BID oral, 150 mg mesylate tablet, n=11, geometric mean (%CV)
[7] = telatinib in plasma, day 14 cycle 1, 900 mg BID oral, 150 mg mesylate tablet, n=12, geometric mean (%CV)
[8] = telatinib in plasma, day 14 cycle 1, 1200 mg BID oral, 150 mg mesylate tablet, n=6, geometric mean (%CV)
[9] = telatinib in plasma, day 14 cycle 1, 1500 mg BID oral, 150 mg mesylate tablet, n=12, geometric mean (%CV)

In the case of CNC(=O)c1cc(COc2nnc(Nc3ccc(Cl)cc3)c3ccoc23)ccn1 [telatinib], the Relative bioavailability ([1]; 150 mg tablet formulation compared with 25 mg tablet formulation) is reported as “less when compared with the 25 mg tablet formulation”, the “Dose proportionality of geometric mean Cmax and AUC0−12” value ([1]; BID dosing, plateaued in the 900–1500 mg BID dose range) is reported as “less than dose-proportional” and the “Increase in geometric mean Cmax between dose levels” value ([1]; between the 300 and 600 mg BID dose level) is reported as “two-fold”. It also gave a half-life ([1]; plasma, oral, telatinib, across dose levels, discussion statement, read-out: half-life) of 6.6 to 10.9 h, a Tmax ([1]; plasma, telatinib, oral, BID dosing, read-out: median tmax) of at most 3 h and a Cmax [1, 3] of 212 ng/mL. It also gave an AUC(0-t) [1, 3] of 1390 ng·h/mL, an AUC [1, 3] of 1380 ng·h/mL and a half-life ([1]; telatinib in plasma, day 14 cycle 1, 75 mg BID oral, 25 mg mesylate tablet, n=4, geometric mean (%CV), read-out: t1/2 (converted)) of 7.4 h. It also gave a Tmax ([1]; telatinib in plasma, day 14 cycle 1, 75 mg BID oral, 25 mg mesylate tablet, n=4, median (range), read-out: tmax) of 2.1 h, a Cmax [1, 4] of 219 ng/mL and an AUC(0-t) [1, 4] of 1730 ng·h/mL. For the same compound, the AUC [1, 4] was 1750 ng·h/mL, the half-life ([1]; telatinib in plasma, day 14 cycle 1, 150 mg BID oral, 25 mg mesylate tablet, n=6, geometric mean (%CV), read-out: t1/2 (converted)) was 10.9 h and the Tmax ([1]; telatinib in plasma, day 14 cycle 1, 150 mg BID oral, 25 mg mesylate tablet, n=6, median (range), read-out: tmax) was 3 h. It also gave an AUC(0-t) ([1]; telatinib in plasma, day 14 cycle 1, 300 mg BID oral, 25 mg mesylate tablet, n=6 (sample size reduced by 2), geometric mean (%CV)) of 2860 ng·h/mL, a half-life ([1]; telatinib in plasma, day 14 cycle 1, 300 mg BID oral, 25 mg mesylate tablet, n=6 (sample size reduced by 2), geometric mean (%CV), read-out: t1/2 (converted)) of 8 h and a Cmax [1, 5] of 389 ng/mL. It also gave an AUC [1, 5] of 1920 ng·h/mL, a Tmax ([1]; telatinib in plasma, day 14 cycle 1, 300 mg BID oral, 25 mg mesylate tablet, n=6, median (range), read-out: tmax) of 1.5 h and a Cmax [1, 6] of 810 ng/mL. It also gave an AUC(0-t) [1, 6] of 5430 ng·h/mL, an AUC [1, 6] of 5430 ng·h/mL and a half-life ([1]; telatinib in plasma, day 14 cycle 1, 600 mg BID oral, 150 mg mesylate tablet, n=11, geometric mean (%CV), read-out: t1/2 (converted)) of 8.7 h. For the same compound, the Tmax ([1]; telatinib in plasma, day 14 cycle 1, 600 mg BID oral, 150 mg mesylate tablet, n=11, median (range), read-out: tmax) was 2.1 h, the half-life ([1]; telatinib in plasma, day 14 cycle 1, 900 mg BID oral, 150 mg mesylate tablet, n=12 (sample size reduced by 2), geometric mean (%CV), read-out: t1/2 (converted)) was 5.6 h and the Cmax [1, 7] was 1280 ng/mL. It also gave an AUC(0-t) [1, 7] of 7300 ng·h/mL, an AUC [1, 7] of 7410 ng·h/mL and a Tmax ([1]; telatinib in plasma, day 14 cycle 1, 900 mg BID oral, 150 mg mesylate tablet, n=12, median (range), read-out: tmax) of 2 h. For the same compound, the Cmax [1, 8] was 1140 ng/mL, the AUC(0-t) [1, 8] was 7260 ng·h/mL and the AUC [1, 8] was 7100 ng·h/mL. For the same compound, the half-life ([1]; telatinib in plasma, day 14 cycle 1, 1200 mg BID oral, 150 mg mesylate tablet, n=6, geometric mean (%CV), read-out: t1/2 (converted)) was 5.6 h, the Tmax ([1]; telatinib in plasma, day 14 cycle 1, 1200 mg BID oral, 150 mg mesylate tablet, n=6, median (range), read-out: tmax) was 2.5 h and the Cmax [1, 9] was 964 ng/mL. For the same compound, the AUC(0-t) [1, 9] was 6290 ng·h/mL, the AUC [1, 9] was 6170 ng·h/mL and the half-life ([1]; telatinib in plasma, day 14 cycle 1, 1500 mg BID oral, 150 mg mesylate tablet, n=12, geometric mean (%CV), read-out: t1/2 (converted)) was 6.6 h. For the same compound, the Tmax ([1]; telatinib in plasma, day 14 cycle 1, 1500 mg BID oral, 150 mg mesylate tablet, n=12, median (range), read-out: tmax) was 2.5 h, the median tmax ([1]; telatinib, oral, 75 mg BID to 1500 mg BID dose range) was at most 3 h and the VEGFR-2 autophosphorylation [2] was “inhibited”.
